Melting point and IC50 data for 6 molecules are collected here from patent US6391915B2, “Propanolamine derivatives” (Fujisawa Pharmaceutical Co., Ltd., priority 1997, dated 2002).

SMILES strings stand for the structures.

Series [1] deals with isolated rat distal colon. Nature of the series: Effect on isolated rat distal colon (spontaneous contractions, organ bath). The class given is cell-based. The note with it: 0.5 h; male SD rat distal colon strip, Tyrode solution, 37° C., spontaneous contractions observed over 30 minutes. The procedure:
Effect on isolated rat distal colon:
Male SD rats (180-230 g) were used. Animals were fasted for 24 hours prior to experiment. Distal colon was removed immediately after sacrifice and placed in an organ bath containing 25 ml Tyrode solution aerating with 95% O2, 5% CO2 at 37° C. The strip was mounted under 0.5 g tension and spontaneous contractions were recorded isometrically. After the mobility was of a uniform size, test compound was added to an organ bath and the contractions were observed over a 30 minutes period. Effect of test compound was calculated by comparing contractions before and after test compound.

Series [2] deals with isolated non-pregnant rat uterus. Nature of the series: Effect on isolated non-pregnant rat uterus (spontaneous contractions, organ bath). The series is classed as cell-based. The settings on record: 20 min; female SD rat uterus, estradiol-induced oestrus, Locke solution, 37° C., spontaneous contractions observed over 20 minutes. The protocol: Effect on isolated non-pregnant rat uterus
Female SD rats (150-180 g) were used. 48 and 24 hours prior to use, rats were given estradiol (ovahormon benzoat Trademark, Teikoku Hormone Mfg. Co., Ltd.) subcutaneously at a dose of 40 μg/rat to induce oestrus. The animals were killed and uteri were removed. Each strip was placed in an organ bath containing 25 ml Locke solution aerating with 95% O2, 5% CO2 at 37° C. under 1 g tension. Contractions were recorded isometrically. After the spontaneous contractions were of a uniform size, test compound was added to organ bath. The motility was observed over a 20 minutes period. Effect of test compound was calculated by comparing contractions before and after test compound.

`O=C([O-])COc1ccc2c(c1)CCCC(NC[C@H](O)COc1ccccc1)C2.[Na+]` (stereo partly drawn) [Example 11, Sodium [6,7,8,9-tetrahydro-6-[((2S)-2-hydroxy-3-phenoxypropyl)amino]-5H-benzocyclohepten-2-yloxy]acetate]: the melting point was 166 to 174 °C.
Molecule `CCOC(=O)COc1cccc2c1CCCC(NC[C@H](O)COc1ccccc1)C2.Cl` (stereo partly shown) showed a melting point of 43 to 58 °C.
In turn, `CCOC(=O)COc1ccc2c(c1)CC(NC[C@H](O)COc1ccccc1)CCC2.Cl` (stereo partly shown) registered a melting point of 122 to 128 °C.
In the case of `C=CCOc1ccccc1OCC(O)CN[C@H]1CCc2ccc(OCC(=O)OCC)cc2C1.O=C(O)C(=O)O` (stereo partly shown), the melting point was in the range of 105 to 109 °C.
Same read-out and setting: under `O=C([O-])COc1cccc2c1CCCC(NC[C@H](O)COc1ccccc1)C2.[Na+]` (stereo partly drawn) [Example 10, sodium [6,7,8,9-tetrahydro-6-[((2S)-2-hydroxy-3-phenoxypropyl)amino]-5H-benzocyclohepten-1-yloxy]acetate] stands 65 °C (dec.).
In the case of `CCOC(=O)COc1cccc2c1CCCC(N(Cc1ccccc1)C[C@H](O)COc1ccccc1)C2` (stereo partly drawn) [Example 1, (2S)-1-[N-benzyl-(1-ethoxycarbonylmethoxy-6,7,8,9-tetrahydro-5H-benzocyclohepten-6-yl)amino]-3-phenoxy-2-propanol], the half-maximal inhibitory concentration (IC50) in series [1] is 0.0042 µM; in series [2], 0.37 µM.

As a reminder, the melting point is the temperature of the solid-liquid transition. As a reminder, the IC50 is the midpoint of a concentration-inhibition curve. A lower IC50 goes with greater potency.
